From patent publication US7563864B2, “Prolyl endopeptidase mediated destruction of T cell epitopes in whole gluten” (Celiac Sprue Research Foundation, priority 2004, dated 2009)

How the values were obtained:
Type in all cases: cell-based, human
Design in all cases: key: −: no response; Stimulatory index (SI; T + APC + TG2-treated peptide divided by T + APC) of 3-10; ++: SI above 10
Conditions in all cases: DQ2+ APC, 5 μM TG2-treated peptide, 3H thymidine incorporation
[1] = test system: intestinal T cell line 496.1.2; test: T cell proliferation assay, polyclonal T cell line 496.1.2
Text: (§1) T cell assays—The generation of polyclonal gluten-specific T cell lines derived from ex vivo gluten challenged small intestinal biopsy specimens of adult Celiac Sprue patients have been described elsewhere. For this study 14 different intestinal T cell lines derived from 13 DQ2+celiac patients were selected based on two basic criteria; effective recognition of TG2-treated digests of gluten and significant responses to at least two different gluten epitopes (Table 2). The generation of intestinal T cell clones and the epitope specificity of these clones, except TCC 387.3, has been described elsewhere (10). The TCC 387.3 recognizes a TG2-dependent epitope, defined as γ-VI that is contained within residues 62-72 (PQQPFPQQPQQ) of recombinant γ-5 gliadin. The freeze-dried, proteolyzed gluten samples were dissolved in PBS with 2 mM CaCl2 and treated with 150 μg/ml human recombinant TG2 (14) or, in some experiments 200 μg/ml guinea pig transglutaminase (Sigma T-5398), for 2 hours at 37° C. The TG2-treated samples were incubated overnight in triplicates on U-bottomed 96 well plates with 75 000 cells per well of DQ2 homozygous, irradiated (75 Gy) EBV-transformed B-lymphoblastoid cell lines in a volume of 100 μl 15% pooled, inactivated human serum and RPMI1640. After the incubation 50 μl of freshly thawed T cells (1×10^6 cells/ml) were added to each well. The proliferation in the wells was evaluated by ^3H thymidine incorporation from 48-72 hours after the addition of the T cells.

[2] = test system: intestinal T cell line 432.2.1; test: T cell proliferation assay, polyclonal T cell line 432.2.1
Text: as §1

[3] = test system: intestinal T cell line 488.3.1; test: T cell proliferation assay, polyclonal T cell line 488.3.1
Text: as §1

[4] = test system: intestinal T cell line 437.1.3; test: T cell proliferation assay, polyclonal T cell line 437.1.3
Text: as §1

[5] = test system: intestinal T cell line 494.1.1; test: T cell proliferation assay, polyclonal T cell line 494.1.1
Text: as §1

[6] = test system: intestinal T cell line 502.1.2; test: T cell proliferation assay, polyclonal T cell line 502.1.2
Text: as §1

[7] = test system: intestinal T cell line 422.4.2; test: T cell proliferation assay, polyclonal T cell line 422.4.2
Text: as §1

[8] = test system: intestinal T cell line 491.1.3; test: T cell proliferation assay, polyclonal T cell line 491.1.3
Text: as §1

[9] = test system: intestinal T cell line 482.1.4; test: T cell proliferation assay, polyclonal T cell line 482.1.4
Text: as §1

[10] = test system: intestinal T cell line 461.1.4; test: T cell proliferation assay, polyclonal T cell line 461.1.4
Text: as §1

[11] = test system: intestinal T cell line 451.1.1; test: T cell proliferation assay, polyclonal T cell line 451.1.1
Text: as §1

[12] = test system: intestinal T cell line 446.1.3; test: T cell proliferation assay, polyclonal T cell line 446.1.3
Text: as §1

[13] = test system: intestinal T cell line 437.1.1; test: T cell proliferation assay, polyclonal T cell line 437.1.1
Text: as §1

[14] = test system: intestinal T cell line 421.1.4; test: T cell proliferation assay, polyclonal T cell line 421.1.4
Text: as §1

Sequence | Response to TG2-treated gluten peptides (stimulatory index) [1] | Response to TG2-treated gluten peptides (stimulatory index) [2] | Response to TG2-treated gluten peptides (stimulatory index) [3] | Response to TG2-treated gluten peptides (stimulatory index) [4] | Response to TG2-treated gluten peptides (stimulatory index) [5] | Response to TG2-treated gluten peptides (stimulatory index) [6] | Response to TG2-treated gluten peptides (stimulatory index) [7] | Response to TG2-treated gluten peptides (stimulatory index) [8] | Response to TG2-treated gluten peptides (stimulatory index) [9] | Response to TG2-treated gluten peptides (stimulatory index) [10] | Response to TG2-treated gluten peptides (stimulatory index) [11] | Response to TG2-treated gluten peptides (stimulatory index) [12] | Response to TG2-treated gluten peptides (stimulatory index) [13] | Response to TG2-treated gluten peptides (stimulatory index) [14]
GIIQPQQPAQL [γ-II] | ++ (SI above 10) | − | − | − | − | − | − | − | − | − | ++ (SI above 10) | ++ (SI above 10) | − | + (Stimulatory index (SI; T + APC + TG2-treated peptide divided by T + APC) of 3-10)
LQLQPFPQPQLPYPQPQLPYPQPQLPYPQPQPF [αG-33] | ++ (SI above 10) | ++ (SI above 10) | ++ (SI above 10) | ++ (SI above 10) | ++ (SI above 10) | ++ (SI above 10) | ++ (SI above 10) | ++ (SI above 10) | ++ (SI above 10) | + (Stimulatory index (SI; T + APC + TG2-treated peptide divided by T + APC) of 3-10) | ++ (SI above 10) | ++ (SI above 10) | ++ (SI above 10) | ++ (SI above 10)
LQPQQPFPQQPQQPYPQQPQ [γ-III and γ-VI] | + (Stimulatory index (SI; T + APC + TG2-treated peptide divided by T + APC) of 3-10) | − | + (Stimulatory index (SI; T + APC + TG2-treated peptide divided by T + APC) of 3-10) | − | ++ (SI above 10) | + (Stimulatory index (SI; T + APC + TG2-treated peptide divided by T + APC) of 3-10) | − | − | − | + (Stimulatory index (SI; T + APC + TG2-treated peptide divided by T + APC) of 3-10) | − | − | − | + (Stimulatory index (SI; T + APC + TG2-treated peptide divided by T + APC) of 3-10)
PQPQLPYPQPQLPY [α-II] | + (Stimulatory index (SI; T + APC + TG2-treated peptide divided by T + APC) of 3-10) | ++ (SI above 10) | ++ (SI above 10) | + (Stimulatory index (SI; T + APC + TG2-treated peptide divided by T + APC) of 3-10) | ++ (SI above 10) | + (Stimulatory index (SI; T + APC + TG2-treated peptide divided by T + APC) of 3-10) | ++ (SI above 10) | ++ (SI above 10) | + (Stimulatory index (SI; T + APC + TG2-treated peptide divided by T + APC) of 3-10) | + (Stimulatory index (SI; T + APC + TG2-treated peptide divided by T + APC) of 3-10) | + (Stimulatory index (SI; T + APC + TG2-treated peptide divided by T + APC) of 3-10) | ++ (SI above 10) | + (Stimulatory index (SI; T + APC + TG2-treated peptide divided by T + APC) of 3-10) | + (Stimulatory index (SI; T + APC + TG2-treated peptide divided by T + APC) of 3-10)
QLQPFPQPQLPY [α-I] | ++ (SI above 10) | − | + (Stimulatory index (SI; T + APC + TG2-treated peptide divided by T + APC) of 3-10) | + (Stimulatory index (SI; T + APC + TG2-treated peptide divided by T + APC) of 3-10) | + (Stimulatory index (SI; T + APC + TG2-treated peptide divided by T + APC) of 3-10) | ++ (SI above 10) | + (Stimulatory index (SI; T + APC + TG2-treated peptide divided by T + APC) of 3-10) | + (Stimulatory index (SI; T + APC + TG2-treated peptide divided by T + APC) of 3-10) | − | − | − | + (Stimulatory index (SI; T + APC + TG2-treated peptide divided by T + APC) of 3-10) | − | −
QPQQPQQSFPQQQRP [γ-I] | − | + (Stimulatory index (SI; T + APC + TG2-treated peptide divided by T + APC) of 3-10) | − | + (Stimulatory index (SI; T + APC + TG2-treated peptide divided by T + APC) of 3-10) | − | − | − | + (Stimulatory index (SI; T + APC + TG2-treated peptide divided by T + APC) of 3-10) | − | − | − | − | − | −
